According to patent publication US20240409557A1, “5,6-FUSED AND 6,6-FUSED BICYCLIC ALCOHOLS AND ETHERS AND COMPOSITIONS FOR USE AS 15-PROSTAGLANDIN DEHYDROGENASE MODULATORS” (AMGEN INC., priority 2023, published 2024):

Legend:
[1] = biological target: T1, human recombinant 15-PGDH (Homo sapiens, UniProt P15428); assay: Recombinant 15-PGDH enzymatic inhibition assay (PGDH-Lumi, NADH signal); type: biochemical; conditions: recombinant 15-PGDH; 15 min pre-incubation, 60 min reaction with PGE2 and NAD+, NADH signal
T1 sequence (P15428 1-266): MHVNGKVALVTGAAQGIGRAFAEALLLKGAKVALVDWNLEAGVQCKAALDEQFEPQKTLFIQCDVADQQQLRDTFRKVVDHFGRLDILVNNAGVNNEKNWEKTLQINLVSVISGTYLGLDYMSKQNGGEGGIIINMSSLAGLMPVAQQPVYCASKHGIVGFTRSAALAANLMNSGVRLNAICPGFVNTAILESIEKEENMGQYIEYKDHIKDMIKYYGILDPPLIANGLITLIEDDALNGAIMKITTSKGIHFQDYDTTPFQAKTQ
Procedure, shortened: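 Recombinant 15-PGDH pre-incubated 15 min at room temperature with compound (22 concentrations, 2-fold dilutions) in 50 mM Tris pH 7.5, 0.01% Tween-20, […].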

15-PGDH in A549 cells = biological target: T2, 15-PGDH in A549 cells (Homo sapiens, UniProt P15428); assay: A549 cellular 15-PGDH assay (PGE2 accumulation, HTRF); type: cell-based; conditions: interleukin-stimulated, inhibitor 24 hrs, PGE2 by competitive HTRF, read-out: A549 Cell Assay IC50
T2 construct: endogenous in cells; host or cells: A549
T2 sequence (P15428 1-266): T1 sequence (P15428 1-266)
Procedure, shortened: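 IL-13-stimulated A549 lung carcinoma cells released PGE2, which was measured in supernatants by competitive HTRF with a Eu-cryptate anti-PGE2 antibody and labelled PGE2. Signal falls as PGE2 rises. IC50 values were derived from the binding data.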

IC50 [1]	IC50 (15-PGDH in A549 cells)	Compound
0.426 nM	1.11 nM	CO[C@]1(C(F)(F)F)C[C@](O)(c2cc3cnc(-c4cnc5nn(C)cc5c4)nc3s2)C1 (single isomer, unassigned) [Compound C113T, trans-3-methoxy-1-(2-(2-methyl-2H-pyrazolo[3,4-b]pyridin-5-yl)thieno[2,3-d]pyrimidin-6-yl)-3-(trifluoromethyl)cyclobutanol]
0.323 nM	0.821 nM	Cn1cc2cc(-c3ncc4cc([C@]5(O)C[C@]6(CC6(F)F)C5)sc4n3)cnc2n1 (single isomer, unassigned) [Compound C114C, cis-1,1-difluoro-5-(2-(2-methyl-2H-pyrazolo[3,4-b]pyridin-5-yl)thieno[2,3-d]pyrimidin-6-yl)spiro[2.3]hexan-5-ol]
0.488 nM	0.669 nM	Cn1cc2cc(-c3ncc4cc([C@]5(O)C[C@@]6(CC6(F)F)C5)sc4n3)cnc2n1 (single isomer, unassigned) [Compound C114T, trans-1,1-difluoro-5-(2-(2-methyl-2H-pyrazolo[3,4-b]pyridin-5-yl)thieno[2,3-d]pyrimidin-6-yl)spiro[2.3]hexan-5-ol]
0.393 nM	0.978 nM	Cn1cc2cc(-c3ccc4nc([C@]5(O)C[C@]6(CC6(F)F)C5)sc4n3)cnc2n1 (single isomer, unassigned) [Compound C115C, cis-1,1-difluoro-5-(5-(2-methyl-2H-pyrazolo[3,4-b]pyridin-5-yl)[1,3]thiazolo[5,4-b]pyridin-2-yl)spiro[2.3]hexan-5-ol]
0.513 nM	1.39 nM	Cn1cc2cc(-c3ccc4nc([C@]5(O)C[C@@]6(CC6(F)F)C5)sc4n3)cnc2n1 (single isomer, unassigned) [Compound C115T, trans-1,1-difluoro-5-(5-(2-methyl-2H-pyrazolo[3,4-b]pyridin-5-yl)[1,3]thiazolo[5,4-b]pyridin-2-yl)spiro[2.3]hexan-5-ol]
0.557 nM	2.21 nM	CO[C@]1(C)C[C@@](O)(c2cc3cnc(-c4cnc5nn(C)cc5c4)nc3s2)C1 (single isomer, unassigned) [Compound C118C, cis-3-methoxy-3-methyl-1-(2-(2-methyl-2H-pyrazolo[3,4-b]pyridin-5-yl)thieno[2,3-d]pyrimidin-6-yl)cyclobutanol]
0.864 nM	2.73 nM	CO[C@]1(C)C[C@](O)(c2cc3cnc(-c4cnc5nn(C)cc5c4)nc3s2)C1 (single isomer, unassigned) [Compound C118T]
10.4 nM	23.8 nM	CO[C@]1(C)C[C@@](O)(c2cc3cnc(-c4cnc5c(c4)nnn5C)nc3s2)C1 (single isomer, unassigned) [Compound C121C]
6.52 nM	13.4 nM	CO[C@]1(C)C[C@](O)(c2cc3cnc(-c4cnc5c(c4)nnn5C)nc3s2)C1 (single isomer, unassigned) [Compound C121T, trans-3-methoxy-3-methyl-1-(2-(3-methyl-3H-[1,2,3]triazolo[4,5-b]pyridin-6-yl)thieno[2,3-d]pyrimidin-6-yl)cyclobutanol]
0.817 nM	2.9 nM	CO[C@]1(C)C[C@@](O)(c2nc3ccc(-c4cnc5nn(C)cc5c4)nc3s2)C1 (single isomer, unassigned) [Compound C125C, cis-3-methoxy-3-methyl-1-(5-(2-methyl-2H-pyrazolo[3,4-b]pyridin-5-yl)[1,3]thiazolo[5,4-b]pyridin-2-yl)cyclobutanol]
0.75 nM	5.42 nM	CO[C@]1(C)C[C@](O)(c2nc3ccc(-c4cnc5nn(C)cc5c4)nc3s2)C1 (single isomer, unassigned) [Compound C125T, trans-3-methoxy-3-methyl-1-(5-(2-methyl-2H-pyrazolo[3,4-b]pyridin-5-yl)[1,3]thiazolo[5,4-b]pyridin-2-yl)cyclobutanol]
0.605 nM	0.0822 nM	Cn1cc2cc(-c3ccc4ccc([C@H](O)C5CC(F)(F)C5)cc4n3)cnc2n1 (single isomer, unassigned) [Compound D1R]
1.17 nM	0.656 nM	Cn1cc2cc(-c3ccc4ccc([C@@H](O)C5CC(F)(F)C5)cc4n3)cnc2n1 (single isomer, unassigned) [Compound D1S]
21700 nM	289 nM	Cn1nnc2cc(-c3ccc4ccc([C@H](O)C5CCOCC5)cc4n3)cnc21 (single isomer, unassigned) [Compound D3R]
11500 nM	> 750 nM	Cn1nnc2cc(-c3ccc4ccc([C@@H](O)C5CCOCC5)cc4n3)cnc21 (single isomer, unassigned) [Compound D3S]
243 nM	187 nM	Cn1cc2cc(-c3ccc4ccc([C@H](O)C5CCOCC5)cc4n3)cnc2n1 (single isomer, unassigned) [Compound D4R]
426 nM	305 nM	Cn1cc2cc(-c3ccc4ccc([C@@H](O)C5CCOCC5)cc4n3)cnc2n1 (single isomer, unassigned) [Compound D4S]

IC50 [1]	IC50 (15-PGDH in A549 cells)	Compound
24.7 nM	61.8 nM	Cn1cc2cc(-c3ccc4cc([C@H](O)C5CC(F)(F)C5)ccc4n3)cnc2n1 (single isomer, unassigned) [Compound D7R]
265 nM	168 nM	Cn1cc2cc(-c3ccc4cc([C@@H](O)C5CC(F)(F)C5)ccc4n3)cnc2n1 (single isomer, unassigned) [Compound D7S]
1.51 nM	1.04 nM	Cn1cc2cc(-c3cc(-c4ccnn4C)c4cc(C(O)C5CCC5)sc4n3)cnc2n1 (stereo not drawn) [Compound B2, cyclobutyl(6-(2-methyl-2H-pyrazolo[3,4-b]pyridin-5-yl)-4-(1-methyl-1H-pyrazol-5-yl)thieno[2,3-b]pyridin-2-yl)methanol]
2.93 nM	39.4 nM	CC(O)c1cc2c(-c3ccnn3C)cc(-c3cnc4nn(C)cc4c3)nc2s1 (stereo not drawn) [Compound B6, 1-(4-(1-methyl-1H-pyrazol-5-yl)-6-(2-methyl-2H-pyrazolo[3,4-b]pyridin-5-yl)thieno[2,3-b]pyridin-2-yl)ethan-1-ol]
7.12 nM	31.9 nM	CC(O)c1cc2c(C3CC3)cc(-c3cnc4nn(C)cc4c3)nc2s1 (stereo not drawn) [Compound B11, 1-(4-cyclopropyl-6-(2-methyl-2H-pyrazolo[3,4-b]pyridin-5-yl)thieno[2,3-b]pyridin-2-yl)ethanol]
0.901 nM	4.19 nM	CCC(O)c1cc2c(C3CC3)cc(-c3cnc4nn(C)cc4c3)nc2s1 (stereo not drawn) [Compound B13, 1-(4-cyclopropyl-6-(2-methyl-2H-pyrazolo[3,4-b]pyridin-5-yl)thieno[2,3-b]pyridin-2-yl)-1-propanol]
0.701 nM	0.957 nM	Cn1cc2cc(-c3ccc4cc(C(O)C5CCOCC5)sc4n3)cnc2n1 (stereo not drawn) [Compound B15, (6-(2-methyl-2H-pyrazolo[3,4-b]pyridin-5-yl)thieno[2,3-b]pyridin-2-yl)(tetrahydro-2H-pyran-4-yl)methanol]
0.471 nM	1.19 nM	Cn1cc2cc(-c3ccc4cc(C(O)C5CC5)sc4n3)cnc2n1 (stereo not drawn) [Compound B16, cyclopropyl(6-(2-methyl-2H-pyrazolo[3,4-b]pyridin-5-yl)thieno[2,3-b]pyridin-2-yl)methanol]
0.382 nM	0.0918 nM	Cn1cc2cc(-c3ccc4cc(C(O)C5CCC5)sc4n3)cnc2n1 (stereo not drawn) [Compound B18, cyclobutyl(6-(2-methyl-2H-pyrazolo[3,4-b]pyridin-5-yl)thieno[2,3-b]pyridin-2-yl)methanol]
0.538 nM	0.171 nM	Cn1cc2cc(-c3ccc4cc(C(O)C5CCOC5)sc4n3)cnc2n1 (stereo not drawn) [Compound B19]
0.513 nM	1.29 nM	CCC(O)c1cc2ccc(-c3cnc4nn(C)cc4c3)nc2s1 (stereo not drawn) [Compound B22, 1-(6-(2-methyl-2H-pyrazolo[3,4-b]pyridin-5-yl)thieno[2,3-b]pyridin-2-yl)-1-propanol]
0.341 nM	1.41 nM	Cn1cc2cc(-c3ccc4cc(C(O)C(F)(F)F)sc4n3)cnc2n1 (stereo not drawn) [Compound B23, 2,2,2-trifluoro-1-(6-(2-methyl-2H-pyrazolo[3,4-b]pyridin-5-yl)thieno[2,3-b]pyridin-2-yl)ethanol]
0.517 nM	0.579 nM	CC(C)C(O)c1cc2ccc(-c3cnc4nn(C)cc4c3)nc2s1 (stereo not drawn) [Compound B24, 2-methyl-1-(6-(2-methyl-2H-pyrazolo[3,4-b]pyridin-5-yl)thieno[2,3-b]pyridin-2-yl)propan-1-ol]
5.85 nM	16.4 nM	CC(O)c1cc2ccc(-c3cnc4nn(C)cc4c3)nc2s1 (stereo not drawn) [Compound B25, 1-(6-(2-methyl-2H-pyrazolo[3,4-b]pyridin-5-yl)thieno[2,3-b]pyridin-2-yl)ethanol]
0.402 nM	0.597 nM	CCCC(O)c1cc2ccc(-c3cnc4nn(C)cc4c3)nc2s1 (stereo not drawn) [Compound B27, 1-(6-(2-methyl-2H-pyrazolo[3,4-b]pyridin-5-yl)thieno[2,3-b]pyridin-2-yl)-1-butanol]
0.463 nM	1.07 nM	Cn1cc2cc(-c3ccc4cc(C(O)C5COC5)sc4n3)cnc2n1 (stereo not drawn) [Compound B28, (6-(2-methyl-2H-pyrazolo[3,4-b]pyridin-5-yl)thieno[2,3-b]pyridin-2-yl)(oxetan-3-yl)methanol]
